Values quoted from earlier work in US20030124075A1, “Use of a composition containing at least one oxidation-sensitive hydrophilic active principle and at least one N-vinylimidazole polymer or copolymer” (L'OREAL, priority 2001, published 2003).

Key:
tyrosinase = molecular target: T1, tyrosinase (Homo sapiens, UniProt P14679); settings: J. Soc. Cosmet. Chem., 42, 1991
T1 sequence (P14679 19-529): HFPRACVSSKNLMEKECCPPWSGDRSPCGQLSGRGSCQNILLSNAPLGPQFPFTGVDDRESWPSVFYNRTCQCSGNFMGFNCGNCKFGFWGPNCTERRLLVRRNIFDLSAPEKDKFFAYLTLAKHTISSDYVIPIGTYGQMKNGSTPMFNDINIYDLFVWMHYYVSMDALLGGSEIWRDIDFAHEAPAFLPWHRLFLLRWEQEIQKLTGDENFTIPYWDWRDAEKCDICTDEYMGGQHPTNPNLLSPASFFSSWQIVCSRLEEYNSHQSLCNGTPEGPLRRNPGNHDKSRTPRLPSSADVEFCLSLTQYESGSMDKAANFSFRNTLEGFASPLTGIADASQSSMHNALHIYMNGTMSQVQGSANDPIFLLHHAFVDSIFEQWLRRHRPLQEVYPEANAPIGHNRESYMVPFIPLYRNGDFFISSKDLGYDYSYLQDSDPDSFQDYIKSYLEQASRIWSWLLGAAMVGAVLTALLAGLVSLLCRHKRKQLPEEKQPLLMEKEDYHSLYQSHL

[1] = J. Am. Acad. Dermatol., 1996, 34, 29-33
melanocytes = settings: Pigment. Cell. Res., 13, 2000

| inhibiting effect on tyrosinase (tyrosinase) | bioavailability [1] | SMILES | dendricity of melanocytes (melanocytes) |
| --- | --- | --- | --- |
| has been demonstrated | – | O=C1O[C@H]([C@@H](O)CO)C(O)=C1O [ascorbic acid] | – |
| – | very low | O=C1O[C@H]([C@@H](O)CO)C([O-])=C1OP(=O)([O-])[O-].O=C1O[C@H]([C@@H](O)CO)C([O-])=C1OP(=O)([O-])[O-].[Mg+2].[Mg+2].[Mg+2] [magnesium ascorbyl phosphate] | can reduce the dendricity of melanocytes |
